Patent US9499495B2, “Quinazolines and azaquinazolines as dual inhibitors of RAS/RAF/MEK/ERK and PI3K/AKT/PTEN/mTOR pathways” (Asana Biosciences, LLC, priority 2013, dated 2016)

What was measured:
A375 cells = experiment: XTT assay for cell viability, A375 cells; type: cell-based; settings: Homo sapiens, A-375, 72 h
Procedure, shortened: (§1)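 RKO and A375 cells seeded at 1000-2000/well overnight, then exposed to compound for 72 h at 37° C., 5% CO2. XTT (1 mg/ml)/PMS (25 μM) added for 2-3 h; absorbance at 450 nm. Growth relative to DMSO control (100%); GI50 from sigmoidal dose-response fit.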

B-RAFV600E = molecular target: T1, B-RAFV600E (Homo sapiens, UniProt P15056, V600E); experiment: B-RAFV600E radiometric assay; type: biochemical; settings: read-out: Kinase assay B-Raf
T1 construct: purchased Millipore, USA 14-557
T1 sequence (P15056 416-766 V600E limits assumed): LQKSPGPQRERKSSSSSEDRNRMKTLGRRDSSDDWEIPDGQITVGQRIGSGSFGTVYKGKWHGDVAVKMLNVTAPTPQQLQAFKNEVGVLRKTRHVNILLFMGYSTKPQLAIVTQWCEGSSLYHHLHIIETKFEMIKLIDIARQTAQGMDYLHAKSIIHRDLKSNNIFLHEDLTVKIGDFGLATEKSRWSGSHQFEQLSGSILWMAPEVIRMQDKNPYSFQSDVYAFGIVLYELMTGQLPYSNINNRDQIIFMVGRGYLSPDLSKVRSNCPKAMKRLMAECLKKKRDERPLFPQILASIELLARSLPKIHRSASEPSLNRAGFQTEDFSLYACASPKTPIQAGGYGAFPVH
Procedure, shortened: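 B-RAFV600E was preincubated 45 min at rt with compound in 1% DMSO. MEK-K97M (0.5 μg), 5 μM final cold ATP and [γ-32P]ATP were then added for 2 h at rt. Phosphorylated MEK was captured on P81 paper and scintillation-counted; IC50 came from a sigmoidal dose-response fit.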

RKO cells = experiment: XTT assay for cell viability, RKO cells; type: cell-based; settings: Homo sapiens, 72 h
Procedure, shortened: as §1

pS6RP in RKO cells = experiment: In Cell Western (ICW) assay, pS6RP in RKO cells; type: cell-based; settings: Homo sapiens, 3 h treatment
Experimental: (§2) Cell lines A375, A2058 and RKO obtained from the ATCC as provided above, were grown, and after attaining ˜80% confluency were trypsinized, centrifuged and resuspended in fresh media. The cells were seeded at the specified density (20,000 to 50,000) in a 96-well format black-well clear bottom plate (Corning) and incubated overnight at 37° C. in a 5% CO2 incubator. The next day, compound dilutions of test compounds were prepared in 100% DMSO followed by dilutions in respective media. Treatment of test compounds was performed for 3 h at 37° C. in 5% CO2 incubator. Following 3 h drug treatment, the conditional media was discarded and the cells were washed once with cPBS (PBS containing 0.1% magnesium chloride hexahydrate and 0.1% anhydrous calcium chloride) and fixed with 4% paraformaldehyde in cPBS for 1 h at rt. After fixing, the cells were given three washes using cPBST (cPBS containing 0.1% Triton™ X-100 reagent) and then blocked using blocking solution (5% skimmed milk powder or 5% BSA prepared in cPBST) for 2 h at rt with shaking at 300 rpm. The cells were again washed thrice with cPBST and incubated with primary antibody phospho-p44/42 MAPK(Erk1/2)(Thr202/204) antibody (Cell Signaling, Catalog # 9101L), phospho S6 ribosomal protein (Cell Signaling, Catalog #4858L), phospho AKT (Thr 308) (Cell Signaling, Catalog #9275) or phospho AKT (Ser 473) (Cell Signaling, Catalog #4060L) in specified dilutions (1:500-1:2500), prepared in respective blocking solutions, in a racker overnight at 4° C. The next day, the cells were washed with 1× Delfia® wash buffer (4×1 wash) and incubated with secondary antibody (Delfia®-Eu-N1 labeled anti-rabbit antibody; PerkinElmer, Catalog #AD0105; dilutions: 1:2000 to 1:6000 in Delfia® assay buffer (PerkinElmer, Catalog #1244-111)) for 2 h at rt in the dark at 300 rpm. The cells were then given four washes with 1× Delfia® wash buffer and incubated with Wallac Delfia® Enhancement solution (100 μL; PerkinElmer, Catalog #1244-105) for 20 min at rt in the dark at 300 rpm. The fluorescence emission was then read at 615 nm with an excitation wavelength of 340 nm using a Victor V5 Fluorometer (Perkin Elmer, US). The cells were then washed once with 1×cPBS and incubated with 100 μL of 0.5 mg/mL of Hoechst 33258 dye prepared in cPBS and read at 460 nm with 355 nm excitation, thereby evaluating the correction factor.
(§3) The % inhibition for the test compounds of formula (I) (new chemical entities (NCEs)) was calculated keeping DMSO control as 0% and the IC50 values were determined using sigmoidal dose response curve fit in GraphPad Prism® v5 software.

pERK in RKO cells = experiment: In Cell Western (ICW) assay, pERK in RKO cells; type: cell-based; settings: Homo sapiens, 3 h treatment
Experimental: as §2, §3

CCCS(=O)(=O)Nc1cccc(-c2ccc3nc(-c4cnc(N)nc4)nc(N4CCOCC4)c3n2)c1F [Example 7, N-(3-(2-(2-aminopyrimidin-5-yl)-4-morpholinopyrido[3,2-d]pyrimidin-6-yl)-2-fluorophenyl)propane-1-sulfonamide] gave an IC50 (A375 cells) of 100 to 1000 nM, an IC50 (B-RAFV600E) of 100 to 1000 nM and an IC50 (RKO cells) of 100 to 1000 nM.

COc1cc2nc(-c3cnc(N)nc3)nc(N3CCOCC3)c2cc1-c1cccc(NS(=O)(=O)CCCF)c1F [Example 11, N-(3-(2-(2-aminopyrimidin-5-yl)-7-methoxy-4-morpholinoquinazolin-6-yl)-2-fluorophenyl)-3-fluoropropane-1-sulfonamide] gave an IC50 (A375 cells) of 100 to 1000 nM, an IC50 (pS6RP in RKO cells) of 100 to 1000 nM and an IC50 (B-RAFV600E) of 1 to 100 nM. It also gave an IC50 (RKO cells) of 100 to 1000 nM.

For CNC(=O)Nc1ccc(-c2nc(N3CCOCC3)c3cc(-c4cccc(NS(=O)(=O)CCCF)c4F)cc(OC)c3n2)cn1 [Example 39, 3-fluoro-N-(2-fluoro-3-(8-methoxy-2-(6-(3-methylureido)pyridin-3-yl)-4-morpholinoquinazolin-6-yl)phenyl)propane-1-sulfonamide], the IC50 (A375 cells) was 1 to 100 nM and the IC50 (B-RAFV600E) was 1 to 100 nM.

Compound COc1cc(-c2cccc(NS(=O)(=O)CCCF)c2F)cc2c(N3CCOC[C@H]3C)nc(-c3cnc(N)nc3)nc12 [Example 43, (R)-N-(3-(2-(2-aminopyrimidin-5-yl)-8-methoxy-4-(3-methylmorpholino)quinazolin-6-yl)-2-fluorophenyl)-3-fluoropropane-1-sulfonamide] has an IC50 (pERK in RKO cells) of 1 to 100 nM, an IC50 (A375 cells) of 1 to 100 nM and an IC50 (pS6RP in RKO cells) of 100 to 1000 nM. It also gave an IC50 (B-RAFV600E) of 1 to 100 nM and an IC50 (RKO cells) of 100 to 1000 nM.

Nc1ncc(-c2nc(N3CCOCC3)c3cc(-c4cccc(NS(=O)(=O)CCCF)c4F)cc(N4CCOCC4)c3n2)cn1 [Example 69, N-(3-(2-(2-aminopyrimidin-5-yl)-4,8-dimorpholinoquinazolin-6-yl)-2-fluorophenyl)-3-fluoropropane-1-sulfonamide] showed an IC50 (A375 cells) of 1 to 100 nM and an IC50 (B-RAFV600E) of 1 to 100 nM.

CCCS(=O)(=O)Nc1cccc(-c2ccc3nc(-c4ccc(N)nc4)nc(N4CCOCC4)c3n2)c1F [Example 86, N-(3-(2-(6-aminopyridin-3-yl)-4-morpholinopyrido[3,2-d]pyrimidin-6-yl)-2-fluorophenyl)propane-1-sulfonamide] gave an IC50 (A375 cells) of 100 to 1000 nM, an IC50 (B-RAFV600E) of 100 to 1000 nM and an IC50 (RKO cells) of 100 to 1000 nM.

Cc1cc(-c2nc(N3CCOCC3)c3nc(-c4cccc(NS(=O)(=O)CCCF)c4F)ccc3n2)cnc1N [Example 90, N-(3-(2-(6-amino-5-methylpyridin-3-yl)-4-morpholinopyrido[3,2-d]pyrimidin-6-yl)-2-fluorophenyl)-3-fluoropropane-1-sulfonamide] showed an IC50 (A375 cells) of 100 to 1000 nM and an IC50 (B-RAFV600E) of 1 to 100 nM.

Work on Nc1ccc(-c2nc(N3CCOCC3)c3nc(-c4cccc(NS(=O)(=O)c5c(F)cccc5F)c4F)ccc3n2)cn1 [Example 95, N-(3-(2-(6-aminopyridin-3-yl)-4-morpholinopyrido[3,2-d]pyrimidin-6-yl)-2-fluorophenyl)-2,6-difluorobenzenesulfonamide] yielded an IC50 (A375 cells) of 100 to 1000 nM, an IC50 (B-RAFV600E) of 1 to 100 nM and an IC50 (RKO cells) of 1000 to 10000 nM.

Compound C[C@@H]1COCCN1c1nc(-c2ccc(N)nc2)nc2ccc(-c3cccc(NS(=O)(=O)CCCF)c3F)nc12 [Example 96, (R)-N-(3-(2-(6-aminopyridin-3-yl)-4-(3-methylmorpholino)pyrido[3,2-d]pyrimidin-6-yl)-2-fluorophenyl)-3-fluoropropane-1-sulfonamide] has an IC50 (pERK in RKO cells) of 1 to 100 nM, an IC50 (A375 cells) of 1 to 100 nM and an IC50 (pS6RP in RKO cells) of 100 to 1000 nM. The IC50 (B-RAFV600E) was 1 to 100 nM and the IC50 (RKO cells) was 100 to 1000 nM.

For C[C@@H]1COCCN1c1nc(-c2cnc(N)nc2)nc2ccc(-c3cccc(NS(=O)(=O)CCCF)c3F)nc12 [Example 97, (R)-N-(3-(2-(2-aminopyrimidin-5-yl)-4-(3-methylmorpholino)pyrido[3,2-d]pyrimidin-6-yl)-2-fluorophenyl)-3-fluoropropane-1-sulfonamide], the IC50 (A375 cells) was 100 to 1000 nM, the IC50 (pS6RP in RKO cells) was 100 to 1000 nM and the IC50 (B-RAFV600E) was 1 to 100 nM. For the same compound, the IC50 (RKO cells) was 100 to 1000 nM.

In the case of O=S(=O)(CCCF)Nc1cccc(-c2ccc3nc(-c4ccc(NCCO)nc4)nc(N4CCOCC4)c3n2)c1F [Example 99, 3-fluoro-N-(2-fluoro-3-(2-(6-((2-hydroxyethyl)amino)pyridin-3-yl)-4-morpholinopyrido[3,2-d]pyrimidin-6-yl)phenyl)propane-1-sulfonamide], the IC50 (pERK in RKO cells) is reported as 1 to 100 nM, the IC50 (A375 cells) is reported as 100 to 1000 nM and the IC50 (pS6RP in RKO cells) is reported as 100 to 1000 nM. It also gave an IC50 (B-RAFV600E) of 1 to 100 nM and an IC50 (RKO cells) of 100 to 1000 nM.

In the case of Nc1cc(F)c(-c2nc(N3CCOCC3)c3nc(-c4cccc(NS(=O)(=O)CCCF)c4F)ccc3n2)cn1 [Example 102, N-(3-(2-(6-amino-4-fluoropyridin-3-yl)-4-morpholinopyrido[3,2-d]pyrimidin-6-yl)-2-fluorophenyl)-3-fluoropropane-1-sulfonamide], the IC50 (pERK in RKO cells) is reported as 100 to 1000 nM, the IC50 (A375 cells) is reported as 100 to 1000 nM and the IC50 (pS6RP in RKO cells) is reported as 100 to 1000 nM. The IC50 (B-RAFV600E) was 1 to 100 nM and the IC50 (RKO cells) was 100 to 1000 nM.

For Nc1cc(C(F)(F)F)c(-c2nc(N3CCOCC3)c3nc(-c4cccc(NS(=O)(=O)c5c(F)cccc5F)c4F)ccc3n2)cn1 [Example 106, N-(3-(2-(6-amino-4-(trifluoromethyl)pyridin-3-yl)-4-morpholinopyrido[3,2-d]pyrimidin-6-yl)-2-fluorophenyl)-2,6-difluorobenzenesulfonamide], the IC50 (A375 cells) was 100 to 1000 nM and the IC50 (B-RAFV600E) was 1 to 100 nM.

O=S(=O)(CCCF)Nc1cccc(-c2ccc3nc(-c4ccc(NCCCO)nc4)nc(N4CCOCC4)c3n2)c1F [Example 111, 3-fluoro-N-(2-fluoro-3-(2-(6-((3-hydroxypropyl)amino)pyridin-3-yl)-4-morpholinopyrido[3,2-d]pyrimidin-6-yl)phenyl)propane-1-sulfonamide] showed an IC50 (A375 cells) of 100 to 1000 nM and an IC50 (B-RAFV600E) of 1 to 100 nM.

For Cc1cc(-c2cccc(NS(=O)(=O)CCCF)c2F)cc2c(N3CCOCC3)nc(-c3cnc(N)nc3)nc12 [Example 116, N-(3-(2-(2-aminopyrimidin-5-yl)-8-methyl-4-morpholinoquinazolin-6-yl)-2-fluorophenyl)-3-fluoropropane-1-sulfonamide], the IC50 (A375 cells) was 1 to 100 nM and the IC50 (B-RAFV600E) was 1 to 100 nM.

C[C@H]1COCCN1c1nc(-c2cnc(N)cc2F)nc2ccc(-c3cccc(NS(=O)(=O)CCCF)c3F)nc12 [Example 129, (S)-N-(3-(2-(6-amino-4-fluoropyridin-3-yl)-4-(3-methylmorpholino)pyrido[3,2-d]pyrimidin-6-yl)-2-fIuorophenyl)-3-fluoropropane-1-sulfonamide] gave an IC50 (A375 cells) of 100 to 1000 nM and an IC50 (B-RAFV600E) of 1 to 100 nM.

With COc1cc(-c2cccc(NS(=O)(=O)CCCF)c2F)cc2c(N3CCOC[C@H]3C)nc(-c3cnc(N)c(F)c3)nc12 [Example 134, (R)-N-(3-(2-(6-amino-5-fluoropyridin-3-yl)-8-methoxy-4-(3-methylmorpholino)quinazolin-6-yl)-2-fluorophenyl)-3-fluoropropane-1-sulfonamide] the IC50 (pERK in RKO cells) was 1 to 100 nM, the IC50 (A375 cells) was 1 to 100 nM and the IC50 (pS6RP in RKO cells) was 1 to 100 nM. It also gave an IC50 (B-RAFV600E) of 1 to 100 nM and an IC50 (RKO cells) of 100 to 1000 nM.

COc1cc(-c2cccc(NS(=O)(=O)CCCF)c2F)cc2c(N3CCOC[C@H]3C)nc(-c3cnc(N)cc3F)nc12 [Example 135, (R)-N-(3-(2-(6-amino-4-fluoropyridin-3-yl)-8-methoxy-4-(3-methylmorpholino)quinazolin-6-yl)-2-fluorophenyl)-3-fluoropropane-1-sulfonamide] gave an IC50 (pERK in RKO cells) of 1 to 100 nM, an IC50 (A375 cells) of 1 to 100 nM and an IC50 (pS6RP in RKO cells) of 100 to 1000 nM. It also gave an IC50 (B-RAFV600E) of 1 to 100 nM and an IC50 (RKO cells) of 100 to 1000 nM.
